This is an account of results in paper PMC3857281, “Molecular Mechanism of Inhibition of the Mitochondrial Carnitine/Acylcarnitine Transporter by Omeprazole Revealed by Proteoliposome Assay, Mutagenesis and Bioinformatics” (PLoS ONE, 2013).

SMILES strings stand for the structures. Residue numbers refer to the chain shown, from its start.

Format in all cases: biochemical
Experiment [1] concerns the target T1, mitochondrial carnitine/acylcarnitine transporter (CACT) (Rattus norvegicus, UniProt P97521).
T1 construct: gene Slc25a20; recombinant WT rat CACT expressed in E. coli, reconstituted in liposomes
T1 sequence (P97521 2-301): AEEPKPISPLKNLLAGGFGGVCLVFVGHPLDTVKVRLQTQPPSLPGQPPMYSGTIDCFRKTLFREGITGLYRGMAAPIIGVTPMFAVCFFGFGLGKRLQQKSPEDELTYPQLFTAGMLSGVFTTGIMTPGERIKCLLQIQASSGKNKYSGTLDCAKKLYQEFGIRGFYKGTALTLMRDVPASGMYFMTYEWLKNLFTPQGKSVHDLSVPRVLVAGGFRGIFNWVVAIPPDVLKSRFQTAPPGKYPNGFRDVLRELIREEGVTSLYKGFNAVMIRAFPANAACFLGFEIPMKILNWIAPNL
The experiment can be described thus: [3H]carnitine/carnitine antiport in proteoliposomes.

Experiment [2] deals with T2, mitochondrial carnitine/acylcarnitine transporter (CACT), C136S mutant (Rattus norvegicus, UniProt P97521, C136S).
T2 construct: gene Slc25a20; recombinant mutant rat CACT reconstituted in liposomes
T2 sequence (P97521 2-301 C136S): T1 sequence (P97521 2-301) with C135S
The experiment can be described thus: […] inhibition of antiport after […] omeprazole and removal of unreacted compound.

Experiment [3] concerns the target T1, mitochondrial carnitine/acylcarnitine transporter (CACT). The experiment can be described thus: [3H]carnitine/carnitine antiport in proteoliposomes; acid-activated omeprazole (non-activated compound inactive).
The target of experiment [4] is T3, mitochondrial carnitine/acylcarnitine transporter (CACT), C283A mutant (Rattus norvegicus, UniProt P97521, C283A).
T3 construct: gene Slc25a20; recombinant mutant rat CACT reconstituted in liposomes
T3 sequence (P97521 2-301 C283A): T1 sequence (P97521 2-301) with C282A
The experiment can be described thus: […] inhibition of antiport after […] omeprazole and removal of unreacted compound.

Regarding `Cc1c(OCC(F)(F)F)ccnc1C[S+]([O-])c1nc2ccccc2[nH]1` (centres unmarked) [lansoprazole], the IC50 in experiment [1] (read-out: IC50) amounted to 80 µM.

As for `COc1ccnc(C[S+]([O-])c2nc3ccc(OC(F)F)cc3[nH]2)c1OC` (centres unmarked) [pantoprazole], in experiment [1], the IC50 is 6.4 µM.

On to `COc1ccc2[nH]c([S+]([O-])Cc3ncc(C)c(OC)c3C)nc2c1` (centres unmarked) [omeprazole], for which the results for the inhibition at 30 µM in experiment [2] and in experiment [4] were 59% and 53%, respectively. This molecule came in with an IC50 in experiment [3] of 5.4 µM.

Usually IC50 stands for the midpoint of a concentration-inhibition curve. For orientation: inhibition means the change of the read-out against control, counted positive when it falls.
